Measured values taken from publication PMC4893628, “Chalcone-based Selective Inhibitors of a C4 Plant Key Enzyme as Novel Potential Herbicides” (Scientific Reports, 2016).
Like-named read-outs stand apart in the source and are kept apart here.

Columns and labels:
F. pringlei PEPC = biological target: T1, F. pringlei PEPC (Flaveria pringlei, UniProt Q01647); experiment: PEPC coupled spectrophotometric assay, C3 PEPC; type: biochemical
T1 construct: the full-length ppcA gene of PEPC from F. trinervia (EMBL-Bank X61304) and F. pringlei (EMBL-Bank Z48966) were cloned in pETEV16b; made in house; host or cells: Escherichia coli BL21-Gold(DE3)
T1 sequence (Q01647 1-967): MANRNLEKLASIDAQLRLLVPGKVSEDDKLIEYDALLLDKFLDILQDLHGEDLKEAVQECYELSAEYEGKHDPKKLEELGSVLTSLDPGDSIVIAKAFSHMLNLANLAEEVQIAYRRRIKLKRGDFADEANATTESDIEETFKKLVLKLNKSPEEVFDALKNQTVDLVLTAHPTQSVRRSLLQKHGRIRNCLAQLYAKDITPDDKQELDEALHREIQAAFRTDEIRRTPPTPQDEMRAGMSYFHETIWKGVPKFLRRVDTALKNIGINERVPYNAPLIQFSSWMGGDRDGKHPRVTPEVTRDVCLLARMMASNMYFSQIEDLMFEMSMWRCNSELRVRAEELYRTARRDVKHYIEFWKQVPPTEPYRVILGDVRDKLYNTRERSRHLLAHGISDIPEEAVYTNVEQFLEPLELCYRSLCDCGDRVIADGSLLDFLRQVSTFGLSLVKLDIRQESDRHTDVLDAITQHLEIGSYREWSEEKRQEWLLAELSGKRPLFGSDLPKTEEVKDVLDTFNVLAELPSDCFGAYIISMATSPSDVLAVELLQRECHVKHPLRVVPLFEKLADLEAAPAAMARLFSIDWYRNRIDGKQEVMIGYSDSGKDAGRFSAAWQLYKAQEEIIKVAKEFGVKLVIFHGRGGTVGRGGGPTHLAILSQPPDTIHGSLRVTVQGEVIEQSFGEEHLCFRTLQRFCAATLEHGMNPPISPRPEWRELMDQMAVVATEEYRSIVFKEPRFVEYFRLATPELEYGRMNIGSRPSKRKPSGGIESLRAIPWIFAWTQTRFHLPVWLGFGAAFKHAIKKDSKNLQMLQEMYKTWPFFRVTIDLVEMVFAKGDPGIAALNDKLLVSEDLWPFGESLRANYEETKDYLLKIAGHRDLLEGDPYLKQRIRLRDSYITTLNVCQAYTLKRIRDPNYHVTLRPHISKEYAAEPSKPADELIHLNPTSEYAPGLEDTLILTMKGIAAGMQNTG
Experimental: The IC50 values of small molecule compounds on F. pringlei and F. trinervia PEPCs were determined using PEPC coupled spectrophotometric assay. The amount of NADH oxidized by NADH-malate dehydrogenase was measured by the decrease in absorbance at 340 nm in a Beckman DU-800 spectrophotometer, thus the value is in proportion to the corresponding substrate conversion of the enzyme. The reaction mixture included the PEPC enzymes (0.05 U), NADH (150 μM), malate dehydrogenase (2 U) and different concentration of compounds in the buffer containing 50 mM HEPES/KOH pH 7.5, 10 mM MgCl2, 10 mM KHCO3 in a final volume of 600 μl at 25 °C. The reactions were started by adding two folds of the Km value of PEP for each enzyme. The data were analyzed using GraFit (Erithacus Software, UK).

[1] = test system: human breast cancer cells; set-up: method as in PMID 11720850; conditions: higher; cited from earlier work
[2] = biological target: T2, wild-type C4 PEPC from F. trinervia (Flaveria trinervia, UniProt P30694); experiment: Isothermal titration calorimetry, wild-type C4 PEPC; type: binding
T2 construct: the full-length ppcA gene of PEPC from F. trinervia (EMBL-Bank X61304); made in house; host or cells: Escherichia coli BL21(DE3)
T2 sequence (P30694 1-966): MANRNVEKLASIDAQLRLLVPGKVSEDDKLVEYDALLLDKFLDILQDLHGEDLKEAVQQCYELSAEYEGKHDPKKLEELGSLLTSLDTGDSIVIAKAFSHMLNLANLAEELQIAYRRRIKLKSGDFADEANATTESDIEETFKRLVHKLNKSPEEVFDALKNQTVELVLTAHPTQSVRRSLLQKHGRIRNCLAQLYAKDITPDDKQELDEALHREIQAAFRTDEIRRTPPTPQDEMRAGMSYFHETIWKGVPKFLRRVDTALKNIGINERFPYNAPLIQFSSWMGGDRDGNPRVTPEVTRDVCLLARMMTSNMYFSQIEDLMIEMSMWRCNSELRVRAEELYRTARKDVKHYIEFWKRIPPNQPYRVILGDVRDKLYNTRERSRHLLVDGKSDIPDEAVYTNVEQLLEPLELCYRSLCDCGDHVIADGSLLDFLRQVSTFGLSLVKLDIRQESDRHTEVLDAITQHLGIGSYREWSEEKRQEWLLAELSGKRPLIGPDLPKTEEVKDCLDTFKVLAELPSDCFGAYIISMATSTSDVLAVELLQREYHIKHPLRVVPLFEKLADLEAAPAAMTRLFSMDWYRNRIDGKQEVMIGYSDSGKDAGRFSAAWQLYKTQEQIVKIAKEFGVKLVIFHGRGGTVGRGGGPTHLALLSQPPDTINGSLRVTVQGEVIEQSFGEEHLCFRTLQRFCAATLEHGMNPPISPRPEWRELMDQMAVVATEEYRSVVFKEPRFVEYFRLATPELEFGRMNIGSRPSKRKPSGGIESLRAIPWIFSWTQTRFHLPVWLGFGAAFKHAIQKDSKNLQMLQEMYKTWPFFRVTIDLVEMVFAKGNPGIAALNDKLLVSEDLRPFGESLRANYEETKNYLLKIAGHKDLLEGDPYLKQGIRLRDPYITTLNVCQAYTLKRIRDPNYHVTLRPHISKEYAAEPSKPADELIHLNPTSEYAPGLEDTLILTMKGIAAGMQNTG
Experimental: (§1) The binding affinities between small molecule compounds and PEPC enzymes were measured using a MicroCal iTC200 calorimeter (GE Healthcare). 18 injections (2 μl each) of 200 μM compound were injected into a sample cell containing 20 uM PEPC at 25 °C. The buffer of the compounds and the enzymes contained 50 mM Tris/HCl pH 7.5, 150 mM NaCl, 10 mM MgCl2. The data were analyzed with one-site-binding fitting using Origin software (MicroCal Inc.) to calculate the dissociation constant (Kd) of the small molecule inhibitors.

C4 PEPC mutant G884R = C4 PEPC mutant G884R (Flaveria trinervia, UniProt P30694, G884R); experiment: Isothermal titration calorimetry, mutant G884R; type: binding
Chain of C4 PEPC mutant G884R (P30694 whole entry G884R): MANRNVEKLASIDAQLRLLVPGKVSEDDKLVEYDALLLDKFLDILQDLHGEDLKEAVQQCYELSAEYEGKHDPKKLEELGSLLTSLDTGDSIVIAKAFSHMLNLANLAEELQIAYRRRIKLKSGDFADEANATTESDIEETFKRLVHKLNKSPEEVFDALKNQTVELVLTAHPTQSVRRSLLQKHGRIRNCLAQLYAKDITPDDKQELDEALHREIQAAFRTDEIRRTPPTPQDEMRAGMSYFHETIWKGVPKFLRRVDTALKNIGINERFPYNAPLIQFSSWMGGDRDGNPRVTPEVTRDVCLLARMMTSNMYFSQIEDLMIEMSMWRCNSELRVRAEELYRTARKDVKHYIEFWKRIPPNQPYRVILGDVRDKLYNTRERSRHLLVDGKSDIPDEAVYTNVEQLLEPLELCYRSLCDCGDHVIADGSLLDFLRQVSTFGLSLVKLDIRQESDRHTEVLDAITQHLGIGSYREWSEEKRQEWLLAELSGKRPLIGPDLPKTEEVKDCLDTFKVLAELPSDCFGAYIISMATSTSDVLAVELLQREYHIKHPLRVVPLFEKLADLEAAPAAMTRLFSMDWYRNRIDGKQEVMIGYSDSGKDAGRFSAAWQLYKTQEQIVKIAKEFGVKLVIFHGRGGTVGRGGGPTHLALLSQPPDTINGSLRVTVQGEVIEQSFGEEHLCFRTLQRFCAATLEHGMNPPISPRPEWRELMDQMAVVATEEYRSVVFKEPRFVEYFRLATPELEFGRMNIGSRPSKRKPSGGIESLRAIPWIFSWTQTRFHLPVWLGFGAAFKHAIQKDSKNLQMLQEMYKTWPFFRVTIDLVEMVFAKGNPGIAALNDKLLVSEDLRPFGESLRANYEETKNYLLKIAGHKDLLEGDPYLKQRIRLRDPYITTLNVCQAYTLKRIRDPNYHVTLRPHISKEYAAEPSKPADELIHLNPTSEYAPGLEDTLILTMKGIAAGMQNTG
Experimental: as §1

B. napus = experiment: Chlorophyll fluorescence measurements, B. napus; type: in vivo, Brassica napus; conditions: 2 mM
[3] = read-out: IC50 F. pringlei PEPC

SMILES	IC50 (F. pringlei PEPC; [3])	IC50 (F. pringlei PEPC; IC50 F. pringlei PEPC)	also measured
O=C(/C=C/c1ccc(O)cc1)c1ccccc1O [Compound 3, 2′,4-Dihydroxychalcone]	64.2 ± 2.8 µM		
O=C(/C=C/c1ccccc1)c1ccc(O)c(O)c1O [Compound 10, 2′,3′,4′-Trihydroxychalcone]			antiproliferative IC50 relative to IC50 for inhibition of C4 PEPC [1]: ~ 5 fold
O=C(/C=C/c1ccc(O)c(O)c1)c1ccc(O)c(O)c1O [Compound 12, 2′,3′,4′,3,4-Pentahydroxy-chalcone]		26.8 ± 3.5 µM	Kd [2]: 0.26 µM; weaker Kd at 0.5 mM aspartate in comparison to no aspartate ([2]; ITC): ~ 5 fold; Kd (C4 PEPC mutant G884R): 5.4 µM; photosynthetic parameters (B. napus): no effect
O=C(/C=C/c1ccc(O)c(O)c1)c1ccc(O)cc1O [Compound 8, 2′,4′,3,4-Tetrahydroxy-chalcone]			Kd [2]: 0.38 µM; Kd (C4 PEPC mutant G884R): 8.6 µM
O=C(/C=C/c1ccccc1)c1ccccc1 [Compound 1, trans-Chalcone]		119 ± 4.6 µM	
O=C(/C=C/c1ccc(O)c(O)c1)c1c(O)cc(O)cc1O [Compound 11, 2′,4′,6′,3,4-Pentahydroxy-chalcone]	8.2 ± 0.3 µM		
O=C(/C=C/c1ccccc1)c1ccc(O)cc1O [Compound 4, 2′,4′-Dihydroxychalcone]	53 ± 1.1 µM		
O=C(/C=C/c1cc(O)c(O)c(O)c1)c1ccc(O)cc1O [Compound 9, 2′,4′,3,4,5-Pentahydroxychalcone]			Kd ([2]; ITC, wild-type (wtFt), no aspartate, read-out: Kd): 0.46 µM; Kd (C4 PEPC mutant G884R): 4.8 µM
O=C(/C=C/c1ccc(O)cc1)c1ccc(O)cc1O [Compound 6, 2′,4′,4-Trihydroxychalcone]		57.8 ± 1.1 µM	
O=C(/C=C/c1ccccc1O)c1ccc(O)cc1O [Compound 7, 2′,4′,2-Trihydroxychalcone]	64.4 ± 1.1 µM		
O=C(/C=C/c1ccccc1)c1cc(O)ccc1O [Compound 5, 2′,5′-Dihydroxychalcone]	105 ± 4.6 µM		
O=C(/C=C/c1ccccc1)c1ccccc1O [Compound 2, 2′-Hydroxychalcone]		76.3 ± 1.9 µM	
